Results taken from patent publication US11236047B2 (ASTEX THERAPEUTICS LIMITED, priority 2017, dated 2022).

What follows are molecules tested on SJSA-1 cells (assay: Protocol B: SJSA-1 CellTiter-Glo luminescent cell viability assay). Conditions: Homo sapiens, SJSA-1, read-out: SJSA1 IC50 (μM) (Protocol B), SJSA-1, Protocol B.

Compound	IC50
Cn1cc(C(C)(O)c2cc(F)c3c(c2)C(=O)N(Cc2ccc(C#N)cn2)[C@@]3(OCC2(C#N)CC2)c2ccc(Cl)cc2)cn1 (stereo partly drawn) [Example 211, 6-{[(1R)-1-(4-chlorophenyl)-1-[(1-cyanocyclopropyl)methoxy]-7-fluoro-5-[1-hydroxy-1-(1-methyl-1H-pyrazol-4-yl)ethyl]-3-oxo-2,3-dihydro-1H-isoindol-2-yl]methyl}pyridine-3-carbonitrile]	0.36 µM
CO[C@]1(c2ccc(Cl)cc2)c2c(F)cc(C(C)(O)c3cnn(C4CN(C(C)=O)C4)c3)cc2C(=O)N1Cc1ccc(Cl)cn1 (stereo partly drawn) [Example 182, (3R)-6-{1-[1-(1-Acetylazetidin-3-yl)-1H-pyrazol-4-yl]-1-hydroxyethyl}-3-(4-chlorophenyl)-2-[(5-chloropyridin-2-yl)methyl]-4-fluoro-3-methoxy-2,3-dihydro-1H-isoindol-1-one]	0.88 µM
CO[C@]1(c2ccc(Cl)cc2)c2c(F)cc(C(C)(O)C3CCS(=O)(=O)CC3)cc2C(=O)N1Cc1ccc(Cl)cn1 (single isomer, unassigned) [Example 311]	0.25 µM
CN(C)CC(C)(O)c1cc(F)c2c(c1)C(=O)N(Cc1ccc(Cl)cn1)[C@@]2(O[C@H]1CCOC1)c1ccc(Cl)cc1 (single isomer, unassigned) [Example 138]	0.56 µM
CC(O)(c1cc(F)c2c(c1)C(=O)N(Cc1ncc(Cl)cn1)[C@@]2(OCC1(O)CC1)c1ccc(Cl)cc1)C1CCS(=O)(=O)CC1 (single isomer, unassigned) [Example 397]	2.5 µM
CC(O)(c1cc(F)c2c(c1)C(=O)N(Cc1ccc(C#N)cn1)[C@@]2(OCC1(C#N)CC1)c1ccc(Cl)cc1)C1CCOCC1 (stereo partly drawn) [Example 282, 6-{[(1R)-1-(4-chlorophenyl)-1-[(1-cyanocyclopropyl)methoxy]-7-fluoro-5-[1-hydroxy-1-(oxan-4-yl)ethyl]-3-oxo-2,3-dihydro-1H-isoindol-2-yl]methyl}pyridine-3-carbonitrile]	0.061 µM
Cn1cc(C(C)(O)c2cc(F)c3c(c2)C(=O)N(Cc2ccc(F)cn2)[C@@]3(OCC2(C(N)=O)CC2)c2ccc(Cl)cc2)cn1 (stereo partly drawn) [Example 209, 1-({[(1R)-1-(4-chlorophenyl)-7-fluoro-2-[(5-fluoropyridin-2-yl)methyl]-5-[1-hydroxy-1-(1-methyl-1H-pyrazol-4-yl)ethyl]-3-oxo-2,3-dihydro-1H-isoindol-1-yl]oxy}methyl)cyclopropane-1-carboxamide]	0.45 µM
COc1ccc(CN2C(=O)c3cc(C(C)(O)c4cnn(C)c4)cc(F)c3[C@]2(OCC2(C(N)=O)CC2)c2ccc(Cl)cc2)cn1 (stereo partly drawn) [Example 216, 1-({[(1R)-1-(4-chlorophenyl)-7-fluoro-5-[1-hydroxy-1-(1-methyl-1H-pyrazol-4-yl)ethyl]-2-[(6-methoxypyridin-3-yl)methyl]-3-oxo-2,3-dihydro-1H-isoindol-1-yl]oxy}methyl)cyclopropane-1-carboxamide]	0.28 µM
CC(O)(c1cc(F)c2c(c1)C(=O)N(Cc1ccc(Cl)cn1)[C@@]2(OCCO)c1ccc(Cl)cc1)C1CCS(=O)(=O)CC1 (single isomer, unassigned) [Example 313]	0.95 µM
Cn1cc(C(C)(O)c2cc(F)c3c(c2)C(=O)N(Cc2ncc(Cl)cn2)[C@@]3(OCC2(C(N)=O)CC2)c2ccc(Cl)cc2)cn1 (stereo partly drawn) [Example 214, 1-({[(1R)-1-(4-chlorophenyl)-2-[(5-chloropyrimidin-2-yl)methyl]-7-fluoro-5-[1-hydroxy-1-(1-methyl-1H-pyrazol-4-yl)ethyl]-3-oxo-2,3-dihydro-1H-isoindol-1-yl]oxy}methyl)cyclopropane-1-carboxamide]	0.22 µM

Same assay, conditions: read-out: SJSA1 IC50 (μM) (Protocol B); SJSA-1, Protocol B

Compound	IC50
Cn1cc(C(C)(O)c2cc(F)c3c(c2)C(=O)N(Cc2ccc(C#N)cn2)[C@@]3(O[C@H]2C[C@@H](O)C2)c2ccc(Cl)cc2)cn1 (single isomer, unassigned) [Example 355, 6-{[1-(4-chlorophenyl)-7-fluoro-5-[1-hydroxy-1-(1-methyl-1H-pyrazol-4-yl)ethyl]-3-oxo-1-[cis-3-hydroxycyclobutoxy]-2,3-dihydro-1H-isoindol-2-yl]methyl}pyridine-3-carbonitrile]	4.7 µM
CO[C@]1(c2ccc(Cl)cc2)c2c(F)cc(C(C)(O)c3ccn(C)n3)cc2C(=O)N1Cc1ccc(Cl)cn1 (single isomer, unassigned) [Example 190]	5 µM
Cn1cc(C(C)(O)c2cc(F)c3c(c2)C(=O)N(Cc2ccc(Cl)cn2)[C@@]3(OCC2(C#N)CC2)c2ccc(Cl)cc2)cn1 (single isomer, unassigned) [Example 201]	0.76 µM
CC(O)(c1cc(F)c2c(c1)C(=O)N(Cc1ccc(C#N)cn1)[C@@]2(OCCO)c1ccc(Cl)cc1)C1CCC1 (single isomer, unassigned) [Example 406]	3.9 µM
CO[C@]1(c2ccc(Cl)cc2)c2c(F)cc(C(C)(O)C3CCN(C(=O)CN(C)C)CC3)cc2C(=O)N1Cc1ccc(Cl)cn1 (single isomer, unassigned) [Example 298]	0.55 µM
CN1CCN(CC(C)(O)c2cc(F)c3c(c2)C(=O)N(Cc2ccc(C#N)cn2)[C@@]3(OCC2(C#N)CC2)c2ccc(Cl)cc2)CC1 (single isomer, unassigned) [Example 279]	0.57 µM
CO[C@]1(c2ccc(Cl)cc2)c2c(F)cc(C(C)(O)c3ncc[nH]3)cc2C(=O)N1Cc1ccc(Cl)cn1 (single isomer, unassigned) [Example 164]	2.2 µM
Cn1cnc(C(C)(O)c2cc(F)c3c(c2)C(=O)N(Cc2ccc(Cl)cn2)[C@@]3(OCC2(O)CC2)c2ccc(Cl)cc2)c1 (single isomer, unassigned) [Example 195]	0.61 µM
Cn1cc(C(C)(O)c2cc(F)c3c(c2)C(=O)N(Cc2ncc(Cl)cn2)[C@@]3(OCC2(O)CC2)c2ccc(Cl)cc2)cn1 (single isomer, unassigned) [Example 204]	0.94 µM
[2H]C([2H])([2H])OCC(C)(O)c1cc(F)c2c(c1)C(=O)N(C([2H])([2H])c1ccc(Cl)cn1)[C@@]2(O[C@H]1CCOC1)c1ccc(Cl)cc1 (single isomer, unassigned) [Example 143]	0.86 µM
CC(O)(c1cc(F)c2c(c1)C(=O)N(Cc1ccc(C#N)cn1)[C@@]2(OCCO)c1ccc(Cl)cc1)C1CCC1 (single isomer, unassigned) [Example 405]	0.63 µM
Cn1cc(C(C)(O)c2cc(F)c3c(c2)C(=O)N(Cc2ccc(C#N)cn2)[C@@]3(O[C@H]2C[C@@H](O)C2)c2ccc(Cl)cc2)cn1 (single isomer, unassigned) [Example 356, 6-{[1-(4-chlorophenyl)-7-fluoro-5-[1-hydroxy-1-(1-methyl-1H-pyrazol-4-yl)ethyl]-3-oxo-1-[cis-3-hydroxycyclobutoxy]-2,3-dihydro-1H-isoindol-2-yl]methyl}pyridine-3-carbonitrile]	0.96 µM
CO[C@]1(c2ccc(Cl)cc2)c2c(F)cc(C(C)(O)C3CCN(C(=O)CN(C)C)CC3)cc2C(=O)N1Cc1ccc(Cl)cn1 (single isomer, unassigned) [Example 299]	2 µM
CCn1cc(C(C)(O)c2cc(F)c3c(c2)C(=O)N(Cc2ccc(Cl)cn2)[C@@]3(OCC2(O)CC2)c2ccc(Cl)cc2)cn1 (single isomer, unassigned) [Example 184]	0.14 µM
CO[C@]1(c2ccc(Cl)cc2)c2c(F)cc(C(C)(O)c3ccn(C)n3)cc2C(=O)N1Cc1ccc(Cl)cn1 (single isomer, unassigned) [Example 189]	1 µM
Cc1nc(C(C)(O)c2cc(F)c3c(c2)C(=O)N(Cc2ccc(Cl)cn2)[C@@]3(OCC2(O)CC2)c2ccc(Cl)cc2)cn1C (single isomer, unassigned) [Example 325]	0.24 µM
Cc1nnc(C(C)(O)c2cc(F)c3c(c2)C(=O)N(Cc2ccc(Cl)cn2)[C@@]3(OCC2(O)CC2)c2ccc(Cl)cc2)o1 (single isomer, unassigned) [Example 185]	2.2 µM
Cn1cnc(C(C)(O)c2cc(F)c3c(c2)C(=O)N(Cc2ccc(Cl)cn2)[C@@]3(OCC2(O)CC2)c2ccc(Cl)cc2)c1 (single isomer, unassigned) [Example 196]	0.15 µM
Cn1cc(C(C)(O)c2cc(F)c3c(c2)C(=O)N(Cc2ccc(Cl)cn2)[C@@]3(OCC2(O)CC2)c2ccc(Cl)cc2)cn1 (single isomer, unassigned) [Example 200]	0.099 µM
CO[C@]1(c2ccc(Cl)cc2)c2c(F)cc(C(C)(O)C3CN(C(C)=O)C3)cc2C(=O)N1Cc1ccc(Cl)cn1 (stereo partly drawn) [Example 389, (3R)-6-[1-(1-acetylazetidin-3-yl)-1-hydroxyethyl]-3-(4-chlorophenyl)-2-[(5-chloropyridin-2-yl)methyl]-4-fluoro-3-methoxy-2,3-dihydro-1H-isoindol-1-one]	4.2 µM
COc1ccc(CN2C(=O)c3cc(C(C)(O)c4cnn(C)c4)cc(F)c3[C@]2(OCC2(CO)CC2)c2ccc(Cl)cc2)nc1 (stereo partly drawn) [Example 224, (3R)-3-(4-chlorophenyl)-4-fluoro-6-[1-hydroxy-1-(1-methyl-1H-pyrazol-4-yl)ethyl]-3-{[1-(hydroxymethyl)cyclopropyl]methoxy}-2-[(5-methoxypyridin-2-yl)methyl]-2,3-dihydro-1H-isoindol-1-one]	0.12 µM
Cc1nc(C(C)(O)c2cc(F)c3c(c2)C(=O)N(Cc2ccc(Cl)cn2)[C@@]3(OCC2(O)CC2)c2ccc(Cl)cc2)cn1C (single isomer, unassigned) [Example 324]	2.2 µM

Same assay, conditions: read-out: SJSA1 IC50; Protocol B, SJSA-1

Compound	IC50
CCC(O)(c1cc(F)c2c(c1)C(=O)N(Cc1ncc(C#N)cn1)[C@@]2(O[C@H]1CCOC1)c1ccc(Cl)cc1)c1cn(C)cn1 (single isomer, unassigned) [Example 369]	0.062 µM
CC(O)(c1cc(F)c2c(c1)C(=O)N(Cc1ncc(Cl)cn1)[C@@]2(O[C@H]1C[C@@H](O)C1)c1ccc(Cl)cc1)[C@H]1CC[C@H](O)CC1 (stereo partly drawn) [Example 496]	1.8 µM
CCC(O)(CN1CCNCC1)c1cc(F)c2c(c1)C(=O)N(Cc1ncc(Cl)cn1)[C@@]2(OCC1(C#N)CC1)c1ccc(Cl)cc1 (single isomer, unassigned) [Example 537]	0.76 µM
CCC(O)(c1cc(F)c2c(c1)C(=O)N(Cc1ccc(C#N)cn1)[C@@]2(OCC1(CO)CC1)c1ccc(Cl)cc1)c1cn(C)cn1 (single isomer, unassigned) [Example 337]	0.058 µM
